In publication PMC5570892, “Indole-based perenosins as highly potent HCl transporters and potential anti-cancer agents” (Scientific Reports, 2017):
“And” between values parts separate entries of the source, which are not always exact repeats. Identical values can stand only once. “Also recorded” adds a separate entry of the source.

Assays:
[1] = pKa by UV spectrophotometric titration in aqueous solution; type: physicochemical; details: for solubility in the pKa titration solvent system: hexafluorophosphate buffered DMSO:water 50:50; for pK a (aq): apparent pKa, hexafluorophosphate buffered DMSO:water 50:50, 25 °C
Source text: The pK a at which protonation of the imine (N2, see Fig. 3) occurs gives an indication of the optimum pH for the binding of chloride anions. This is an important consideration in anti-cancer drug development as the external pH environment of cancer cells is mildly acidic (pH 6.7)[53] compared to that of healthy cells (pH 7.2–7.5)[54]. This can be exploited to selectively target cancer cells and potentially reduce the cytotoxic effects of perenosins when used as therapeutics for anti-cancer treatment. The apparent pK a values, shown in Table 1, for compounds 1d and 2–8 were determined both in aqueous solution (pK a (aq)) and in the presence of a 1-palmitoyl-2-oleoyl-sn-glycero-3-phosphocholine (POPC) lipid bilayer membrane (pK a (mem)). UV spectrophotometric titrations were conducted by varying the pH condition from neutral to acidic with the titration of either HPF6 or HCl.
The apparent pK a values were derived from nonlinear curve fitting of the absorbance plotted against the pH; global fitting of both wavelengths corresponding to the neutral and protonated species were performed whenever feasible, see Supplementary Information for details.
S6.1 pKa Studies in Aqueous Solution pKa values for compounds 1d, 2, 4, 5, 7 and 8 were determined experimentally in aqueous solution […]
in absorbance bet ween the UV-Vis spectra of the protonated and the neutral species. The titration solution was made up with a hexafluorophosphate buffered (100 mM) DMSO:water 50:50 solution (4990 μL) and a transporter solution (10 μL, 25 mM), and the pH of this was recorded. The UV-Vis spectra were recorded on an Agilent Cary 100 UV-Vis spectrophotometer at 25 °C with baseline correction, using standard 10 mm quartz glass cells. A baseline absorbance was measured on a hexafluorophosphate buffered (100 mM) DMSO:water 50:50 solution, and then the absorbance of the titration solution was measured. The pH of the solution was decreased stepwise by adding small aliquots of hexafluorophosphoric acid ([…]). After each pH decrease an absorbance measurement was taken. The absorbance at a certain wavelength (noted for each compound below) was plotted against the pH and then fitted using a dose response curve in OriginPro 9.1, where the point of inflection corresponds to the apparent pKa in aqueous solution.
Figure S38. Absorbance spectra taken over the course of a pH-spectrophotometric titration of 1d (25 mM) in a hexafluorophosphate buffered (100 mM) DMSO:water 50:50 mixture. Inset: Abs vs. pH with dose response curve fit and the point of inflection corresponding to the pKa value.
(1 picture or pasted object on this page, not shown here)

[2] = Cl^−/NO3^− antiport assay by chloride ISE; type: biochemical; details: for EC50 Cl^−/NO3^− at pH 7.2 (by ISE): EC50 at 270 s, carrier:lipid molar percent, POPC vesicles; for chloride efflux at pH 4.5: citrate buffer, within 5 minutes; for chloride transport at pH 6.5: phosphate buffer, compared to pH 7.2; for chloride transport at pH 7.2 (Hill analysis feasibility): Cl^−/NO3^− ISE assay, dose response
Procedure: The chloride transport properties of the new perenosins 2–8 were compared to 1d using the chloride/nitrate exchange assay monitored by a chloride ion selective electrode (ISE). Typically, unilamellar vesicles were prepared from POPC, containing an intravesicular NaCl solution (489 mM with 5 mM phosphate buffer at pH 7.2) suspended in a NaNO3 solution (489 mM with 5 mM phosphate buffer at pH 7.2). All perenosins were added as a DMSO solution and the rate of chloride efflux was monitored by the chloride ISE. At the end of the experiment (300 s), detergent was added to lyse the vesicles and obtain the 100% chloride efflux reading. Dose response studies of 1d and 2–8 were performed to allow Hill analysis, giving the EC50 values and Hill coefficients as shown in Table 2.
The external pH of cancer cells (pH 6.7[53]) is slightly acidic compared to healthy cells (pH 7.2–7.5[54]). […] To investigate the effect of pH on the chloride transport capabilities unilamellar vesicles were loaded with NaCl (489 mM) and suspended in NaNO3 (489 mM), and the internal and external solutions were buffered to pH 4.5, 6.5, 7.2 and 10 using various buffers (more detail can be found in the Supplementary Information). Compounds 1d and 2–8 were then tested in a single point screen at 0.1 mol% loading (Fig. 5). At pH 4.5 the perenosins exist predominantly as the active protonated species and so all compounds show moderate to high chloride transport properties, whereas, there is no chloride transport observed at pH 10 (see Supplementary Information for results).
S10. Anion Transport Studies
S10.1. General Procedure for the ISE Assay
Unilamellar vesicles were prepared using previously reported literature procedures7-9. A lipid film of POPC (1-palmitoyl-2-oleoyl-sn-glycero-3-phosphocholine) or POPC:cholesterol (7:3 molar ratio) was prepared from a chloroform solution under reduced pressure and then dried under vacuum for 4 or more hours. The lipid film was rehydrated by vortexing with an internal solution of buffered metal chloride salt (usually 489 mM MCl). The lipid suspension was then subjected to 9 freeze-thaw cycles and left to rest at room temperature for 30 minutes. After this, the suspension was extruded 25 times through a 200 nm polycarbonate membrane resulting in unilamellar vesicles of a mean diameter of 200 nm. The large unilamellar vesicles were dialysed in the corresponding external solution for a minimum of 2 hours to remove any unencapsulated metal salts. The lipid solution obtained after dialysis was diluted to a standard volume (usually 10 mL) with the external buffered solution to obtain a lipid stock of known concentration.
Internal and external solutions vary for each experiment and are detailed for each. Experiments conducted at different pHs required different buffers (citrate buffer for pH 4.5; phosphate buffer for pH 6.5 and pH 7.2; and ethanolamine buffer for pH 10) however, a constant buffer concentration (5 mM) and total ionic strength (500 mM) was maintained.
The lipid stock was diluted with the external buffer solution to a standard volume (5 mL), to afford a solution with a lipid concentration of 1 mM. The compounds were added as a DMSO solution (10 μL) at the start of the experiment and the resulting chloride efflux was monitored using a chloride selective electrode over 5 minutes. After this time, detergent (50 μL of Triton X-100 (11 w%) in H2O:DMSO (7:1 v/v)) was added to lyse the vesicles and after 7 minutes a final chloride efflux reading was taken. This value represented 100 % chloride efflux and was used to calibrate the other […]
Compared to pH 7.2, at pH 6.5 compounds 1d and 2-6 show increased transport ability with 2, 4 and 5 showing very similar, high transport capabilities and 1d, 3 and 6 not transporting to as great an […]
S10.3. Cl-/NO3- ISE Assay - Hill Analysis
The Cl-/NO3- exchange assay was performed as described above testing the compounds at varying […]
carrier concentration (mol%, with respect to lipid). The data points were then fitted to the Hill […]

SMILES	solubility in the pKa titration solvent system [1]	EC50 Cl^−/NO3^− at pH 7.2 (by ISE) [2]	pK a (aq) [1]	chloride efflux at pH 4.5 ([2]; 0.1 mol% loading)	chloride transport at pH 6.5 ([2]; 0.1 mol% loading)	chloride transport at pH 7.2 (Hill analysis feasibility) [2]	maximum chloride efflux ([2]; after 300 s, loading of 10 mol%, pH 7.2)	chloride efflux in POPC vesicles at pH 7.2 ([2]; 0.1 mol% loading)
CCCCCc1cc2cc(C)cc(/N=C/c3[nH]c(C)c(CCCCC)c3C)c2[nH]1 [Perenosin 6]	precipitation was observed	0.0852 mol%						
CCCCCc1cc2cc(C)cc(/N=C/c3[nH]c4ccccc4c3C)c2[nH]1 [Perenosin 8]			6.28	35%	inactive	too weak to perform Hill analysis; also recorded: weak transport activity		
CCCCCc1c(C)[nH]c(/C=N/c2cc(C)cc3cc[nH]c23)c1C [Perenosin 5]		0.0227 mol%	6.44		high			
CCCCCc1cc(/N=C/c2[nH]c3ccccc3c2C)c2[nH]ccc2c1 [Perenosin 7]			5.51	inactive	inactive	too weak to perform Hill analysis; also recorded: weak transport activity		
CCCCCc1cc2cc(C(F)(F)F)cc(/N=C/c3[nH]c(C)cc3C)c2[nH]1 [Perenosin 3]	precipitation was observed					too weak to perform Hill analysis	35%	
CCCCCc1cc(/N=C/c2[nH]c(C)cc2C)c2[nH]ccc2c1 [Perenosin 1d]		0.122 mol% and 0.1220 mol%	6.35					
CCCc1cc2cc(C)cc(/N=C/c3[nH]c(C)cc3C)c2[nH]1 [Perenosin 4]		0.0111 mol%	6.78		high			
CCCCCc1cc2cc(C)cc(/N=C/c3[nH]c(C)cc3C)c2[nH]1 [Perenosin 2]		0.0043 mol%	6.08		high			100%
